Experimental data published in PubChem BioAssay AID2060498 (Molecular Pharmacology Branch, DTP, NCI, 2025).
One block for each compound: values may come before it.

Test system: 171881-019-R-J1-PDC tumor spheroids, viability
Experiment: Anticancer human tumor 171881-019-R-J1-PDC patient-derived invasive breast carcinoma cell line growth inhibition [GQUAD]
Conditions: spheroids with HUVEC and MSC; for IC50: curve of first compound; for viability, T/C: stronger effect = lower value
How it was run: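 Tumor cells were grown as complex spheroids with HUVEC endothelial cells and mesenchymal stem cells as stroma. G-quadruplex stabilizers were combined with targeted agents over half-log dilutions from near the clinical Cmax, or from 10 microM.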

[1] = second compound 0.0316 µM, first compound 0.0316 µM
[2] = second compound 0.0316 µM, first compound 0.1 µM
[3] = second compound 0.0316 µM, first compound 0.316 µM
[4] = second compound 0.0316 µM, first compound 1 µM
[5] = second compound 0.0316 µM, first compound 3.16 µM
[6] = second compound 0.0316 µM, first compound 10 µM
[7] = second compound 0.1 µM, first compound 0.0316 µM
[8] = second compound 0.1 µM, first compound 0.1 µM
[9] = second compound 0.1 µM, first compound 0.316 µM
[10] = second compound 0.1 µM, first compound 1 µM
[11] = second compound 0.1 µM, first compound 3.16 µM
[12] = second compound 0.1 µM, first compound 10 µM
[13] = second compound 0.316 µM, first compound 0.0316 µM
[14] = second compound 0.316 µM, first compound 0.1 µM
[15] = second compound 0.316 µM, first compound 0.316 µM
[16] = second compound 0.316 µM, first compound 1 µM
[17] = second compound 0.316 µM, first compound 3.16 µM
[18] = second compound 0.316 µM, first compound 10 µM
[19] = second compound 1 µM, first compound 0.0316 µM
[20] = second compound 1 µM, first compound 0.1 µM
[21] = second compound 1 µM, first compound 0.316 µM
[22] = second compound 1 µM, first compound 1 µM
[23] = second compound 1 µM, first compound 3.16 µM
[24] = second compound 1 µM, first compound 10 µM
[25] = second compound 3.16 µM, first compound 0.0316 µM
[26] = second compound 3.16 µM, first compound 0.1 µM
[27] = second compound 3.16 µM, first compound 0.316 µM
[28] = second compound 3.16 µM, first compound 1 µM
[29] = second compound 3.16 µM, first compound 3.16 µM
[30] = second compound 3.16 µM, first compound 10 µM
[31] = second compound 10 µM, first compound 0.0316 µM
[32] = second compound 10 µM, first compound 0.1 µM
[33] = second compound 10 µM, first compound 0.316 µM
[34] = second compound 10 µM, first compound 1 µM
[35] = second compound 10 µM, first compound 3.16 µM
[36] = second compound 10 µM, first compound 10 µM
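Note: spheroids exposed to compounds for 7 days.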
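Throughout, for viability, T/C: 100% = DMSO vehicle control viability.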

Compound: CC1COCCN1c1cc(C2(S(C)(=N)=O)CC2)nc(-c2ccnc3[nH]ccc23)n1 (stereo not drawn) + CN(C)c1ccc(Nc2c3ccc(NC(=O)CCN4CCCC4)cc3nc3cc(NC(=O)CCN4CCCC4)ccc23)cc1
IC50 (second compound 0.0316 µM): 1370 nM
IC50 (second compound 0.1 µM): 1190 nM
IC50 (second compound 0.316 µM): 667 nM
IC50 (second compound 1 µM): < 31.6 nM
IC50 (second compound 3.16 µM): < 31.6 nM
IC50 (second compound 10 µM): < 31.6 nM
viability, T/C [1]: 97.3%
viability, T/C [2]: 109%
viability, T/C [3]: 99.8%
viability, T/C [4]: 62.6%
viability, T/C [5]: 15.8%
viability, T/C [6]: 6.43%
viability, T/C [7]: 98.9%
viability, T/C [8]: 99.1%
viability, T/C [9]: 81%
viability, T/C [10]: 59.1%
viability, T/C [11]: 16.8%
viability, T/C [12]: 6.7%
viability, T/C [13]: 77.7%
viability, T/C [14]: 88%
viability, T/C [15]: 63%
viability, T/C [16]: 41.6%
viability, T/C [17]: 16.7%
viability, T/C [18]: 4.97%
viability, T/C [19]: 26%
viability, T/C [20]: 13.1%
viability, T/C [21]: 20.5%
viability, T/C [22]: 11.9%
viability, T/C [23]: 7.12%
viability, T/C [24]: 2.2%
viability, T/C [25]: 1.87%
viability, T/C [26]: 1.5%
viability, T/C [27]: 1.71%
viability, T/C [28]: 0.99%
viability, T/C [29]: 0.76%
viability, T/C [30]: 0.35%
viability, T/C [31]: 0.19%
viability, T/C [32]: 0.55%
viability, T/C [33]: 0.48%
viability, T/C [34]: 0.52%
viability, T/C [35]: 0.54%
viability, T/C [36]: 0.25%

IC50 (second compound 0.0316 µM): 652 nM
IC50 (second compound 0.1 µM): 541 nM
IC50 (second compound 0.316 µM): 428 nM
IC50 (second compound 1 µM): 496 nM
IC50 (second compound 3.16 µM): 566 nM
IC50 (second compound 10 µM): 358 nM
Compound: C=CCn1c(=O)c2cnc(Nc3ccc(N4CCN(C)CC4)cc3)nc2n1-c1cccc(C(C)(C)O)n1 + Cc1cnc(CNC(=O)c2c(=O)c3ccc(N4CCCN(C)CC4)nc3n3c2sc2ccccc23)cn1
viability, T/C [1]: 106%
viability, T/C [2]: 84.2%
viability, T/C [3]: 74.9%
viability, T/C [4]: 36.3%
viability, T/C [5]: 19.9%
viability, T/C [6]: 23.3%
viability, T/C [7]: 72.9%
viability, T/C [8]: 76%
viability, T/C [9]: 60.6%
viability, T/C [10]: 37.3%
viability, T/C [11]: 22.6%
viability, T/C [12]: 22.2%
viability, T/C [13]: 72.1%
viability, T/C [14]: 68.6%
viability, T/C [15]: 55.7%
viability, T/C [16]: 34.3%
viability, T/C [17]: 26.1%
viability, T/C [18]: 24.8%
viability, T/C [19]: 66.5%
viability, T/C [20]: 60.4%
viability, T/C [21]: 56.6%
viability, T/C [22]: 41.3%
viability, T/C [23]: 31.1%
viability, T/C [24]: 28.1%
viability, T/C [25]: 66.1%
viability, T/C [26]: 58%
viability, T/C [27]: 58.5%
viability, T/C [28]: 42.3%
viability, T/C [29]: 36.6%
viability, T/C [30]: 35.3%
viability, T/C [31]: 57.4%
viability, T/C [32]: 54.6%
viability, T/C [33]: 50.2%
viability, T/C [34]: 48.7%
viability, T/C [35]: 36.4%
viability, T/C [36]: 36%

Compound: CC(C)(O)C1CCC(Nc2ccc3ncc(-c4cccc(C(F)(F)F)c4)n3n2)CC1 (stereo not drawn) + CN(C)c1ccc(Nc2c3ccc(NC(=O)CCN4CCCC4)cc3nc3cc(NC(=O)CCN4CCCC4)ccc23)cc1
IC50 (second compound 0.0316 µM): 1860 nM
IC50 (second compound 0.1 µM): 1840 nM
IC50 (second compound 0.316 µM): < 31.6 nM
IC50 (second compound 1 µM): < 31.6 nM
IC50 (second compound 3.16 µM): < 31.6 nM
IC50 (second compound 10 µM): < 31.6 nM
viability, T/C [1]: 99.9%
viability, T/C [2]: 103%
viability, T/C [3]: 102%
viability, T/C [4]: 73.8%
viability, T/C [5]: 30%
viability, T/C [6]: 25.6%
viability, T/C [7]: 94.5%
viability, T/C [8]: 99.5%
viability, T/C [9]: 101%
viability, T/C [10]: 77.1%
viability, T/C [11]: 24.3%
viability, T/C [12]: 27.6%
viability, T/C [13]: 43.7%
viability, T/C [14]: 47.2%
viability, T/C [15]: 39.3%
viability, T/C [16]: 22.2%
viability, T/C [17]: 9.07%
viability, T/C [18]: 6.72%
viability, T/C [19]: 3.24%
viability, T/C [20]: 2.74%
viability, T/C [21]: 3.28%
viability, T/C [22]: 1%
viability, T/C [23]: 0.4%
viability, T/C [24]: 0.21%
viability, T/C [25]: 0.19%
viability, T/C [26]: 0.18%
viability, T/C [27]: 0.29%
viability, T/C [28]: 0.13%
viability, T/C [29]: 0.43%
viability, T/C [30]: 0.14%
viability, T/C [31]: 0.15%
viability, T/C [32]: 0.47%
viability, T/C [33]: 0.23%
viability, T/C [34]: 0.13%
viability, T/C [35]: 0.32%
viability, T/C [36]: 0.17%

Compound: CCCS(=O)(=O)Nc1ccc(F)c(C(=O)c2c[nH]c3ncc(-c4ccc(Cl)cc4)cc23)c1F + CN(C)c1ccc(Nc2c3ccc(NC(=O)CCN4CCCC4)cc3nc3cc(NC(=O)CCN4CCCC4)ccc23)cc1
IC50 (second compound 0.0316 µM): 9820 nM
IC50 (second compound 0.1 µM): 9480 nM
IC50 (second compound 0.316 µM): 3260 nM
IC50 (second compound 1 µM): < 31.6 nM
IC50 (second compound 3.16 µM): < 31.6 nM
IC50 (second compound 10 µM): < 31.6 nM
viability, T/C [1]: 99.8%
viability, T/C [2]: 108%
viability, T/C [3]: 102%
viability, T/C [4]: 116%
viability, T/C [5]: 93.7%
viability, T/C [6]: 49.2%
viability, T/C [7]: 76.9%
viability, T/C [8]: 100%
viability, T/C [9]: 84.2%
viability, T/C [10]: 104%
viability, T/C [11]: 94.5%
viability, T/C [12]: 47.9%
viability, T/C [13]: 43.8%
viability, T/C [14]: 53.4%
viability, T/C [15]: 55.8%
viability, T/C [16]: 44.1%
viability, T/C [17]: 56.2%
viability, T/C [18]: 25.8%
viability, T/C [19]: 5.16%
viability, T/C [20]: 3.85%
viability, T/C [21]: 4.58%
viability, T/C [22]: 3.58%
viability, T/C [23]: 3.49%
viability, T/C [24]: 3.08%
viability, T/C [25]: 0.35%
viability, T/C [26]: 0.31%
viability, T/C [27]: 0.72%
viability, T/C [28]: 0.43%
viability, T/C [29]: 0.5%
viability, T/C [30]: 0.53%
viability, T/C [31]: 0.11%
viability, T/C [32]: 0.23%
viability, T/C [33]: 0.24%
viability, T/C [34]: 0.32%
viability, T/C [35]: 0.57%
viability, T/C [36]: 0.3%
